For seven molecules, % of control, % of inhibition and % binding results are on record in ChEMBL document CHEMBL5465560, “Selectivity Literature for EUbOPEN Chemogenomic Library” (2024).

Test [1] addresses Serine/threonine-protein kinase MRCK alpha (Homo sapiens) (UniProt Q5VT25). Nature of the test: Selectivity interaction (KinomeScan (DiscoverX)) EUB0000695a CDC42BPA. The note with it: at 100 nM.
Test [2] addresses T1, Serine/threonine-protein kinase RIO3 (Homo sapiens) (UniProt O14730).
T1 sequence (whole entry): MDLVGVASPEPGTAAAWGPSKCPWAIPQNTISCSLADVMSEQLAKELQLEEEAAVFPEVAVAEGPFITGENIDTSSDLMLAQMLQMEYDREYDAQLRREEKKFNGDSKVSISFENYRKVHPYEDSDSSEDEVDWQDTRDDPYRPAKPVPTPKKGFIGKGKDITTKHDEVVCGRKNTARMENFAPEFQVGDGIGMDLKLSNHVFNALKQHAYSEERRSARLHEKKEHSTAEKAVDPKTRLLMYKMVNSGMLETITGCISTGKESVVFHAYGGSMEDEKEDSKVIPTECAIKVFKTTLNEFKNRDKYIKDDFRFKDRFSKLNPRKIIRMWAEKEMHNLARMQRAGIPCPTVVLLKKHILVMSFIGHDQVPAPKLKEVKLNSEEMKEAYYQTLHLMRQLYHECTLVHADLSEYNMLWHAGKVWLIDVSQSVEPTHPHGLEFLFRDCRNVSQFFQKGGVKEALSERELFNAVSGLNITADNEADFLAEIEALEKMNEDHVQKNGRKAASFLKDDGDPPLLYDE
As to the kind of experiment: Selectivity interaction (KinomeScan (DiscoverX)) EUB0000695a RIOK3. The note with it: at 100 nM.

The target in test [3] is Death-associated protein kinase 2 (Homo sapiens) (UniProt Q9UIK4). The note with it: at 10 µM.
In test [4] the target is Ribosomal protein S6 kinase beta-1 (Homo sapiens, UniProt P23443). Nature of the test: Selectivity interaction (Kinase panel (Invitrogen)) EUB0000639a RPS6KB1. The note with it: at 200 nM.
Test [5] addresses Casein kinase I isoform delta (Homo sapiens, UniProt P48730). Nature of the test: Selectivity interaction (ActivX KiNativ screen (kinase selectivity in THP-1 cell lysates)) EUB0000639a CSNK1D. The test is classed as subcellular. The note with it: lysate.
The target of test [6] is T2, Mitogen-activated protein kinase kinase kinase kinase 2 (Homo sapiens) (UniProt Q12851).
T2 sequence (whole entry): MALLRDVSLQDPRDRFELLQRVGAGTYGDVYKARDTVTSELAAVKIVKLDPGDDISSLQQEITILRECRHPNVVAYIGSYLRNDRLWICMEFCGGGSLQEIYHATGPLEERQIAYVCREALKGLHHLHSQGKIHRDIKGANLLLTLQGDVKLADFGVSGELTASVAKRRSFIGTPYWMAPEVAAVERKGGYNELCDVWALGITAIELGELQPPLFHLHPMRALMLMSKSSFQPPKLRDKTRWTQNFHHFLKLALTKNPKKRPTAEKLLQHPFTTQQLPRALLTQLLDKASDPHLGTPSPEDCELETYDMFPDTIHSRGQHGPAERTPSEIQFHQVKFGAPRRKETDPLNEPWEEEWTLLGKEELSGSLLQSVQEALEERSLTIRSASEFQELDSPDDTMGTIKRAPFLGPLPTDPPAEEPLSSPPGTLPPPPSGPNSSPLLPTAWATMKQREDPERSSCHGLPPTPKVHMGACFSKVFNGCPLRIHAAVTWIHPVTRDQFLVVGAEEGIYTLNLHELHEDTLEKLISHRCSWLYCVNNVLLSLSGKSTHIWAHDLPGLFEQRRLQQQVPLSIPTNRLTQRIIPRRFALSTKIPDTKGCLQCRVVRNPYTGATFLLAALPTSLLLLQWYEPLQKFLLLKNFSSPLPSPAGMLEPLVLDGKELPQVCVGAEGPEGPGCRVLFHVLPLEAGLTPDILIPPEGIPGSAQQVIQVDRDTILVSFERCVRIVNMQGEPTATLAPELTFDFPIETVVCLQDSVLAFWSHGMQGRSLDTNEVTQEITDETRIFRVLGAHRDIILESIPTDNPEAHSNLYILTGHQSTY
Nature of the test: Selectivity interaction (ActivX KiNativ screen (kinase selectivity in THP-1 cell lysates)) EUB0000639a MAP4K2. Format: subcellular. The note with it: lysate, at 0.04 µM.

Test [7] deals with Phosphatidylinositol 4-kinase type 2-beta (Homo sapiens) (UniProt Q8TCG2). As to the kind of experiment: Selectivity interaction (ProQinase) EUB0000171b PI4K2B.
Test [8] deals with RAC-alpha serine/threonine-protein kinase (Homo sapiens, UniProt P31749). As to the kind of experiment: Selectivity interaction (Upstate Kinase Profiler service (Millipore)) EUB0000056c AKT1. The note with it: at 1 µM.
In test [9] the target is Rho-associated protein kinase 2 (Homo sapiens, UniProt O75116). Nature of the test: Selectivity interaction (Upstate Kinase Profiler service (Millipore)) EUB0000056c ROCK2. The note with it: at 1 µM.
Test [10] concerns the target Serine/threonine-protein kinase tousled-like 2 (Homo sapiens) (UniProt Q86UE8). As to the kind of experiment: Selectivity interaction (KinomeScan (DiscoverX)) EUB0000618a TLK2. The note with it: at 10 µM.
Test [11] deals with Wee1-like protein kinase (Homo sapiens) (UniProt P30291). As to the kind of experiment: Selectivity interaction (KinomeScan (DiscoverX)) EUB0000229b WEE1. The note with it: at 10 µM.

Casein kinase I isoform delta, sequence (P48730 whole entry, looked up, canonical isoform): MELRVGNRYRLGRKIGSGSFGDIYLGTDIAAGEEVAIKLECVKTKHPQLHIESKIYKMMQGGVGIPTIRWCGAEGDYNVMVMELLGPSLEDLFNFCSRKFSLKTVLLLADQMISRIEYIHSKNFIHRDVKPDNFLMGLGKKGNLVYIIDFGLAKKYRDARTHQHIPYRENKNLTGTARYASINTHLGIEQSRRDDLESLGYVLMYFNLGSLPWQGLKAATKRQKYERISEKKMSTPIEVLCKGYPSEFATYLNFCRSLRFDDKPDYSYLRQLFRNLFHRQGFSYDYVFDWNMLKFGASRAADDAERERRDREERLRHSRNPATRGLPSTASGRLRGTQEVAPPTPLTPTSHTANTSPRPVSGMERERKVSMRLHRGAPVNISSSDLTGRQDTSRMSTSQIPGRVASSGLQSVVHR
Phosphatidylinositol 4-kinase type 2-beta (Homo sapiens), sequence (Q8TCG2 whole entry): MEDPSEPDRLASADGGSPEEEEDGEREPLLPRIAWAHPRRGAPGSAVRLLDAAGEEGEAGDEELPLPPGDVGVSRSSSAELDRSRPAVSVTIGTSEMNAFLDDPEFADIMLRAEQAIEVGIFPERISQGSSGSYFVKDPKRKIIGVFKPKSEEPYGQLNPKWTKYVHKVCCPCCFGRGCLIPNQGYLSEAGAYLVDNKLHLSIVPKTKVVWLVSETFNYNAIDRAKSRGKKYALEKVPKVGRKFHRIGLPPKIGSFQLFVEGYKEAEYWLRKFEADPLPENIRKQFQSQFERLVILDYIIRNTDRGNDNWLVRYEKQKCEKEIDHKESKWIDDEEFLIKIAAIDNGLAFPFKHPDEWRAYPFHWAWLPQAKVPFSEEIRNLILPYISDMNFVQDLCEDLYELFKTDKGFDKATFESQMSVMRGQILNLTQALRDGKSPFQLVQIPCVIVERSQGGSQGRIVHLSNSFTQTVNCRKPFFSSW
Rho-associated protein kinase 2, sequence (O75116 whole entry, looked up): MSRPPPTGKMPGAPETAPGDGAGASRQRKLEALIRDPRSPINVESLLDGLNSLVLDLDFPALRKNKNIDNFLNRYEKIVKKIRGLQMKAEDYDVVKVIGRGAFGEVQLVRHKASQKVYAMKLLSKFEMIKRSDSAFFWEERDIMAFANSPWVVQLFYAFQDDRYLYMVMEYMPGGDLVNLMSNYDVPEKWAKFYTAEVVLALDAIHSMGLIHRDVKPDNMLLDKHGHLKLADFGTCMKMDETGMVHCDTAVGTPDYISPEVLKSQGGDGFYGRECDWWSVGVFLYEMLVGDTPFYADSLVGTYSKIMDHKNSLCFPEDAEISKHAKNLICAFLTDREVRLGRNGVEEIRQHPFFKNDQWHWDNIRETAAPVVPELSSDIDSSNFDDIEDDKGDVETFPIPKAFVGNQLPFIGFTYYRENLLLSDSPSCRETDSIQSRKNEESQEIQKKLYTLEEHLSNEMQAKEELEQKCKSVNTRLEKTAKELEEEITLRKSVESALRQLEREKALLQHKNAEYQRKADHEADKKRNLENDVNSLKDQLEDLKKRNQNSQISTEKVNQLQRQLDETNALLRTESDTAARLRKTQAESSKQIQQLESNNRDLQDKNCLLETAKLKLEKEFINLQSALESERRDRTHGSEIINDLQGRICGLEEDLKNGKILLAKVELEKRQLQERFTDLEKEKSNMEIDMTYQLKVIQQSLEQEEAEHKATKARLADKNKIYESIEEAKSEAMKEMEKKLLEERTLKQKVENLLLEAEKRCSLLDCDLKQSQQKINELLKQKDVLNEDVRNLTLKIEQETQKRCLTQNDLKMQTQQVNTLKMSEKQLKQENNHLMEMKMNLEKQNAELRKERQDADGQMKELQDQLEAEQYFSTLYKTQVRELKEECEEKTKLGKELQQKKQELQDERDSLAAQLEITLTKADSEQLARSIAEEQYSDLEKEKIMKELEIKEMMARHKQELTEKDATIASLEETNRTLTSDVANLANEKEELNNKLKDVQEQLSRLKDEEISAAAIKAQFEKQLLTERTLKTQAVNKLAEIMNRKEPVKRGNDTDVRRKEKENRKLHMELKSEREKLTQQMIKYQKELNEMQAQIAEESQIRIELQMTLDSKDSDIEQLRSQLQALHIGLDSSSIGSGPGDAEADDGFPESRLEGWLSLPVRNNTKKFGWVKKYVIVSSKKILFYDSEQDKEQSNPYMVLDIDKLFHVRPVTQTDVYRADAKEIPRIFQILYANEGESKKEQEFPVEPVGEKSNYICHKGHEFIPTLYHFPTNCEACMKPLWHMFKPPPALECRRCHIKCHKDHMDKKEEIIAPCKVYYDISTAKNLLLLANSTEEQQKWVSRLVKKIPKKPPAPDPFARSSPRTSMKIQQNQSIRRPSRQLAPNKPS
Death-associated protein kinase 2 (Homo sapiens), sequence (Q9UIK4 whole entry, looked up): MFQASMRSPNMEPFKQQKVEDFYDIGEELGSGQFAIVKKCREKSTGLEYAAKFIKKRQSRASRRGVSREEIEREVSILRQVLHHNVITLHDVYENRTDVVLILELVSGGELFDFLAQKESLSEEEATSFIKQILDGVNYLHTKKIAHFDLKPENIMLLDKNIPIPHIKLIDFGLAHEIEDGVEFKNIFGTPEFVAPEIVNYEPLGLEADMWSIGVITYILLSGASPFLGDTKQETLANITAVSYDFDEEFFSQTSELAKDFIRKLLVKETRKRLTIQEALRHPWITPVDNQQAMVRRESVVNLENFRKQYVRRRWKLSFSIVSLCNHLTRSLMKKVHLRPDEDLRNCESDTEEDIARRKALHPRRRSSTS
Ribosomal protein S6 kinase beta-1, sequence (P23443 whole entry, looked up, canonical isoform): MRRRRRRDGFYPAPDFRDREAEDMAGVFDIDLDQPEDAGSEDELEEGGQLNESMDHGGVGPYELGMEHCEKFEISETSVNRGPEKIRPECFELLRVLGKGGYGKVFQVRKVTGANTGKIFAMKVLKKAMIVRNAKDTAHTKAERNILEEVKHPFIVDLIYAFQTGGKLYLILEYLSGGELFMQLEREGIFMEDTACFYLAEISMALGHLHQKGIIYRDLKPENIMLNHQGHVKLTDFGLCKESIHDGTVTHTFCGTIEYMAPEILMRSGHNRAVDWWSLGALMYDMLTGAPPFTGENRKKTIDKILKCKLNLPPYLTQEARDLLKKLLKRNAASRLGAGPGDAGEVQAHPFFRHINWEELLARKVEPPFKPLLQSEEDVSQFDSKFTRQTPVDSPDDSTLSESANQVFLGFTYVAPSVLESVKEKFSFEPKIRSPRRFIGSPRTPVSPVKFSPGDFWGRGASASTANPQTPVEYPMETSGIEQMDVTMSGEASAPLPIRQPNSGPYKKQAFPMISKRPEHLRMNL
RAC-alpha serine/threonine-protein kinase, sequence (P31749 whole entry): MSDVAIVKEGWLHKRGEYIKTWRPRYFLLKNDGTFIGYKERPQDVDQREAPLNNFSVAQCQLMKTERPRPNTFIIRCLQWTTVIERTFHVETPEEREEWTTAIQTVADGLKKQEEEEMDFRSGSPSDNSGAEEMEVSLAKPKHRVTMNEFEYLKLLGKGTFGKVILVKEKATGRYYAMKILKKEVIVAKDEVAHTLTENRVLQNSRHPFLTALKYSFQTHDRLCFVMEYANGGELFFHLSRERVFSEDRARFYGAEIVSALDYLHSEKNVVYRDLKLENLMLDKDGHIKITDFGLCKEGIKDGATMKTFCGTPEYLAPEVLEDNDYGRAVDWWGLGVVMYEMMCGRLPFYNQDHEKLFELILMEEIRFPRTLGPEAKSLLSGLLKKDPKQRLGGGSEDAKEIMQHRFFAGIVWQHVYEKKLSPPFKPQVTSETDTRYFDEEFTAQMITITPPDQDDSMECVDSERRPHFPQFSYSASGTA
Serine/threonine-protein kinase tousled-like 2 (Homo sapiens), sequence (Q86UE8 whole entry, looked up): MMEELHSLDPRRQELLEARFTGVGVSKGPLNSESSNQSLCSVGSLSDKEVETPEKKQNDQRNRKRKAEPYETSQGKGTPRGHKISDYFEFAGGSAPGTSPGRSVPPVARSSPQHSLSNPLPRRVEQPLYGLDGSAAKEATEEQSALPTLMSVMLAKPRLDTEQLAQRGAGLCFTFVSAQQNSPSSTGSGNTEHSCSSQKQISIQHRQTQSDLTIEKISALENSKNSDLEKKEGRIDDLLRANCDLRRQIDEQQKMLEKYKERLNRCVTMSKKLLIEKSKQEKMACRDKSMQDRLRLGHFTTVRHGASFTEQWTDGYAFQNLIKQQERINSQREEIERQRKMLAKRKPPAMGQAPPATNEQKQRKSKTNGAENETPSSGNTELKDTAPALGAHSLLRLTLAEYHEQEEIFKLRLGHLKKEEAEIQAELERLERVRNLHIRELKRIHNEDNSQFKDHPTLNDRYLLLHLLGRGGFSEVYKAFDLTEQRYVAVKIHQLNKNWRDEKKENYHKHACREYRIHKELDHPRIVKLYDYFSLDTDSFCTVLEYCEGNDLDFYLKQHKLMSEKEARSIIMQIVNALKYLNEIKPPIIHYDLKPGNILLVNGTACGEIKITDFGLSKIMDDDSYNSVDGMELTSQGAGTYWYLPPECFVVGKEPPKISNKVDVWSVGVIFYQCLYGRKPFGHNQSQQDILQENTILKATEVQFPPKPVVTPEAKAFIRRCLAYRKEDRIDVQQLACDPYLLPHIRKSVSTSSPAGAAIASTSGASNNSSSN

As to `Cc1cc(F)c(C(=O)Nc2cccc(-c3nncn3C(C)C)n2)cc1-n1cnc(C2CC2)c1`, the % of control in [1] was 100%; in test [2] it was 83%.
Molecule `Cc1cc([C@@H](C)Nc2ccccc2C(=O)O)c2nc(N3CCOCC3)cc(=O)n2c1` [AZD-6482] yielded a % of control in test [3] of 92%.
`CC[C@@H]1[C@H](F)C(=O)N[C@@H]1COc1nccc2cc(C(N)=O)c(OC)cc12` [ZIMLOVISERTIB]: the % of inhibition in [4] is 17.4%; in test [5] (at 0.01 µM) it was -6.6%; in test [5] (at 0.04 µM), 20.3%; in [5] (at 0.2 µM), 53%; in [5] (at 1 µM), 77.8%; in [5] (at 5 µM) it was 94.8%. The % of inhibition in test [6] was -1%.
With `C=CC(=O)Nc1cccc(C(=O)Nc2ccc(Nc3cc(-c4[nH]c(SC)nc4C)ccn3)cc2)c1`, the % of control in test [7] (at 1 µM) was determined as 128%; in [7] (at 5 µM) it was 120%.
As for `Cc1ccc(-c2ccc3c(ccc4sc5c(c43)NC[C@@H](C)NC5=O)n2)cn1`, the % of inhibition in [8] is -3%; in test [9], -9%.
`O[C@H]1CC[C@H](Nc2ncc3nc(Nc4c(F)cc(F)cc4F)n([C@H]4CCOC4)c3n2)CC1`: the % of control in test [10] came to 99%.
The molecule `COc1cc(N(C)c2ccnc3ccc(C(F)(F)F)cc23)cc(OC)c1OC` returned a % binding in test [11] of 91%.
